Here are results for 15 compounds from patent US8835481B2, “1-benzyl-3-hydroxymethylindazole derivatives and use thereof in the treatment of diseases based on the expression of MCP-1, CX3CR1 and P40” (Aziende Chimiche Riunite Angelini Francesco A.C.R.A.F. …, priority 2008, dated 2014).

As usually defined, the inhibition is the percentage by which the read-out fell short of the control. What is called melting point is the temperature of the solid-liquid transition.

Series [1] deals with MCP-1 protein production by LPS-stimulated MonoMac6 cells. As to the kind of experiment: Measurement of the production of MCP-1 in a human monocyte line (ELISA). The conditions noted are these: 1 h pre-incubation, LPS 100 ng/ml 20 h, MonoMac6 supernatant; for inhibition at 150 µM: MONO-MAC-6, compound 150 μM (maximum soluble concentration); for inhibition at 300 µM: MONO-MAC-6, compound 300 μM (maximum soluble concentration); for inhibition at 30 µM: MONO-MAC-6, compound 30 μM (maximum soluble concentration). Type of series: cell-based. As to the method: The capacity of the compounds to inhibit the expression of the protein MCP-1 by lipopolysaccharide (LPS)-stimulated MonoMac6 cells was evaluated. The cells were placed in 96-well plates at a concentration of 50 000 cells/well. The compounds were tested at the maximum soluble concentration given in Table 2 (in the range 30-300 μM) and incubated for 1 hour. The cells were then stimulated with LPS (100 ng/ml) for 20 hours.
The amount of MCP-1 produced was measured in the supernatants, suitably diluted with buffer, by means of an immunoenzymatic test (ELISA) using a commercial kit (ELISA MCP-1/JE, R&D Systems).

Series [2] concerns MCP-1 expression by LPS-stimulated MonoMac6 cells. The series is described as follows: Analysis of the gene expression of MCP-1 in a human monocyte line (real-time RT-PCR). It counts as cell-based. The settings on record: 1 h pre-incubation, LPS 100 ng/ml 4 h. As to the method:
The capacity of the compounds to inhibit the expression of MCP-1 by lipopolysaccharide (LPS)-stimulated MonoMac6 cells was evaluated. The cells were placed in 96-well plates at a concentration of 50 000 cells/well. The compounds were tested at the maximum soluble concentration given in Table 1 (in the range 30-300 μM) and incubated for 1 hour. The cells were then stimulated with LPS (100 ng/ml) for 4 hours.
(§1) The total RNA was extracted from the cell pellet using the RNeasy mini kit (Qiagen), reverse-transcribed with the TaqMan Reverse transcription reagents synthesis kit (Applied Biosystems) and the cDNA obtained was used for the real-time PCR reaction. The amplification was obtained in 96-well plates using the ABI Prism 7000 sequence detection system (Applied Biosystems), by applying the following temperature profile: 50° C. for 2 minutes, 95° C. for 10 minutes and 45 cycles at 95° C. for 15 seconds and 60° C. for 1 minute. For the amplification, a set of primers and probe specific for human MCP-1 was used (Applied Biosystems, RefSeq NM_002982.3). A set of primers and probe for β-actin was used in separate wells as an internal control of the samples for the purposes of normalization. Once the reaction had taken place, the fluorescence data were analysed using the ABI Prism 7000 SDS software, by calculating the threshold cycle (Ct) for each sample and subsequently performing a relative quantification via the ΔΔCt method.
On the technique in general: Real-time PCR tracks product formation cycle by cycle.

For series [3], the system named is CX3CR1 expression by LPS-stimulated MonoMac6 cells. The series is described as follows: Analysis of the gene expression of CX3CR1 in a human monocyte line (real-time RT-PCR). It counts as cell-based. The conditions noted are these: 1 h pre-incubation, LPS 100 ng/ml 20 h, read-out: % inhibition of CX3CR1 expression (mRNA); for inhibition at 300 µM: MONO-MAC-6, compound 300 μM (maximum soluble concentration); for inhibition at 150 µM: MONO-MAC-6, compound 150 μM (maximum soluble concentration). As to the method:
The capacity of the compounds to inhibit the expression of CX3CR1 by lipopolysaccharide (LPS)-stimulated MonoMac6 cells was evaluated. The cells were placed in 96-well plates at a concentration of 50 000 cells/well. […] The cells were then stimulated with LPS (100 ng/ml) for 20 hours.
as §1, with “For the amplification, a set of primers and probe specific for human MCP-1 was used (Applied Biosystems, RefSeq NM_002982.3).” left out

Series [4] concerns p40 expression by LPS-stimulated MonoMac6 cells. The series is described as follows: Analysis of the gene expression of p40 in a human monocyte line (real-time RT-PCR). It counts as cell-based. The conditions noted are these: 1 h pre-incubation, LPS 100 ng/ml 4 h, read-out: % inhibition of p40 expression (mRNA); for inhibition at 300 µM: MONO-MAC-6, compound 300 μM (maximum soluble concentration). As to the method:
The capacity of the compounds to inhibit the expression of p40 by lipopolysaccharide (LPS)-stimulated MonoMac6 cells was evaluated. The cells were placed in 96-well plates at a concentration of 50 000 cells/well. The compounds were tested at the maximum soluble concentration given in Table 4 (in the range 30-300 μM) and incubated for 1 hour. The cells were then stimulated with LPS (100 ng/ml) for 4 hours.
as §1, with “For the amplification, a set of primers and probe specific for human MCP-1 was used (Applied Biosystems, RefSeq NM_002982.3).” left out

Where [5] appears, read: compound 300 μM (maximum soluble concentration).
[6] abbreviates: compound 150 μM (maximum soluble concentration).
Where [7] appears, read: MONO-MAC-6, compound 30 μM (maximum soluble concentration).

Regarding `CC(C)(OCc1nn(Cc2ccccc2)c2ccc(Cl)cc12)C(=O)O` [Compound 5, 2-[(1-benzyl-5-chloro-1H-indazol-3-yl)methoxy]-2-methylpropanoic acid], the melting point was 145 to 147 °C. This compound also had an inhibition at 150 µM in series [1] of 82%.
`CC(C)(OCCOCc1nn(Cc2ccccc2)c2ccccc12)C(=O)O` [Compound 20, 2-{2-[(1-benzyl-1H-indazol-3-yl)methoxy]ethoxy}-2-methylpropanoic acid] came in with a melting point of 94 to 95 °C. Also, the “% inhibition of MCP-1 expression (mRNA)” value in series [2] (setting [5]) came to 29%. In addition, the inhibition at 300 µM in series [1] was determined as 73%. The inhibition at 300 µM in series [3] is 89%. Moreover, the inhibition at 300 µM in series [4] was determined as 58%.
For `COc1ccc(Cn2nc(COC(C)(C)C(=O)O)c3ccccc32)cc1` [Compound 1, 2-{[1-(4-methoxybenzyl)-1H-indazol-3-yl]methoxy}-2-methylpropanoic acid], the melting point lay in the range of 169 to 171 °C. For the same compound, in series [2] (setting [5]), the “% inhibition of MCP-1 expression (mRNA)” value was determined as 57%. Further, at 300 µM the inhibition in series [1] was 80%. In addition, the inhibition at 300 µM in series [3] is 97%. In addition, the inhibition at 300 µM in series [4] amounted to 50%.
With `CC(C)(OCc1nn(Cc2ccccc2)c2ccc([N+](=O)[O-])cc12)C(=O)O` [Compound 6, 2-[(1-benzyl-5-nitro-1H-indazol-3-yl)methoxy]-2-methylpropanoic acid], the “% inhibition of MCP-1 expression (mRNA)” value in series [2] (setting [6]) was 95%. The inhibition at 150 µM is 100% in series [1] and 98% in series [3].
As for `CC(C)(OCCCOCc1nn(Cc2ccccc2)c2ccccc12)C(=O)O` [Compound 21, 2-{3-[(1-benzyl-1H-indazol-3-yl)methoxy]propoxy}-2-methylpropanoic acid], the “% inhibition of MCP-1 expression (mRNA)” value in series [2] (setting [5]) turned out to be 61%. Also, the inhibition at 300 µM in series [1] amounted to 88%; in series [3], 97%; in series [4], 50%.
For the compound `CC(C)(OCc1nn(Cc2ccc(Cl)c(Cl)c2)c2ccccc12)C(=O)O` [Compound 7, 2-{[1-(3,4-dichlorobenzyl)-1H-indazol-3-yl]methoxy}-2-methylpropanoic acid], the results for the inhibition at 30 µM in series [1], in series [3] (setting [7]) and in series [4] (setting [7]) were 29%, 85% and 47%, respectively.
Compound `O=C(O)COCc1nn(Cc2ccc(Cl)cc2Cl)c2ccccc12` [Compound 18, {[1-(2,4-dichlorobenzyl)-1H-indazol-3-yl]methoxy}acetic acid] gave an inhibition at 30 µM in series [1] of 35%.
With `CC(C)(OCc1nn(Cc2ccccc2)c2ccc(Br)cc12)C(=O)O` [Compound 23, 2-[(1-benzyl-5-bromo-1H-indazol-3-yl)methoxy]-2-methylpropanoic acid], the melting point is 168 to 170 °C.
In the case of `O=C(O)COCc1nn(Cc2ccc(F)cc2)c2ccccc12` [Compound 17, {[1-(4-fluorobenzyl)-1H-indazol-3-yl]methoxy}acetic acid], in series [2] (setting [5]), the “% inhibition of MCP-1 expression (mRNA)” value worked out at 26%. Moreover, the inhibition at 300 µM turned out to be 39% in series [1], 90% in series [3] and 61% in series [4].
`COc1ccc2c(c1)c(COC(C)(C)C(=O)O)nn2Cc1ccccc1` [Compound 2, 2-[(1-benzyl-5-methoxy-1H-indazol-3-yl)methoxy]-2-methylpropanoic acid]: the melting point lay in the range of 128 to 130 °C. For the same compound, the inhibition at 300 µM in series [1] came to 66%.
With `CC(C)(OCc1nn(C2CCCc3ccccc32)c2ccccc12)C(=O)O` (centres unmarked) [Compound 8, 2-methyl-2-{[1-(1,2,3,4-tetrahydronaphth-1-yl)-1H-indazol-3-yl]methoxy}-propanoic acid], the inhibition at 150 µM in series [1] was 77%.
With `O=C(O)COCCOCc1nn(Cc2ccccc2)c2ccccc12` [Compound 19, {2-[(1-benzyl-1H-indazol-3-yl)methoxy]ethoxy}acetic acid], the inhibition at 300 µM in series [1] is 63%.
`CC(C)(OCc1nn(C(=O)c2ccccc2)c2ccccc12)C(=O)O` [Compound 3, 2-[(1-benzoyl-1H-indazol-3-yl)methoxy]-2-methylpropanoic acid]: in series [2] (setting [5]), the “% inhibition of MCP-1 expression (mRNA)” value turned out to be 65%. Further, the values for the inhibition at 300 µM in series [1], in series [3] and in series [4] were 83%, 99% and 64%, respectively.
In the case of `Cc1ccc(Cn2nc(COC(C)(C)C(=O)O)c3ccccc32)cc1` [Compound 22, 2-{[1-(4-methylbenzyl)-1H-indazol-3-yl]methoxy}-2-methylpropanoic acid], the inhibition at 150 µM in series [1] turned out to be 37%.
Regarding `CC(C)(OCc1nn(Cc2ccc(Cl)cc2)c2ccccc12)C(=O)O` [Compound 4, 2-{[1-(4-chlorobenzyl)-1H-indazol-3-yl]methoxy}-2-methylpropanoic acid], the “% inhibition of MCP-1 expression (mRNA)” value in series [2] (setting [6]) is reported as 26%. For the same compound, the inhibition at 150 µM came to 54% in series [1]; 87% in series [3]; 48% in series [4] (MONO-MAC-6, compound 150 μM (maximum soluble concentration)).
